Results as given in patent US20240360148A1 (SUVALENT THERAPEUTICS, INC., priority 2021, published 2024).
≈ marks a conversion by molar mass, not a printed value. Where two headings read alike, the source gives them in different places.

How the values were obtained:
SAE1 [1] = target: SAE1 (Homo sapiens (Human), UniProt Q9UBT2); experiment: SAE High Throughput Biochemical Assay (HTRF), 15 min preincubation; settings: SAE1 12.5 nM, ATP 100 μM
Procedure, shortened: (§1)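 HTRF detection of SUMO transfer from SUMO-GST to UBC9-His (40 nM each) by SAE1 at 12.5 nM used 100 μM ATP in pH 7.5 HEPES buffer with 10 mM MgCl2 and 0.1% BSA. Enzyme and compound were preincubated 15 min at RT and the reaction ran 45 min, with readings after 2 h and overnight.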

[2] = tested on: sumoylation levels (SUMO 2/3 conjugates) in HCT-116 cells; experiment: HCT-116 4 Hour Cell Assay (Western, SUMO 2/3 conjugates); type: cell-based; settings: 4 h treatment, Anti-Sumo 2-3 immunoblot, read-out: HCT-116 Western 4 h IC50 (μM) Ave
Procedure, shortened: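 IC50 derived from fluorescent immunoblot quantification of SUMO 2/3 conjugate bands, normalized to total protein, after non-reducing SDS-PAGE. Lysis used RIPA plus NEM; exposure was 4 h across 11 concentrations, three-fold serial dilution starting at 25 μM.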

[3] = Plasma protein binding, equilibrium dialysis, mouse plasma; type: in vitro ADME; settings: 5 hours at 37° C., read-out: PPB % bound Mouse (converted)
Protocol: (§2) The compounds of interest were evaluated for various PK parameters. Specifically CACO permeability/efflux and plasma protein binding (PPP) were determined. Stock solutions were prepared at 10 mM in DMSO for test and reference compounds. Aliquots of the stock solution were diluted to 500× of final concentration (0.5 mM) with DMSO, then further diluted upon the addition of bank PE3-buffer to 20× of final concentration (20 μM). Then test and reference compounds were prepared in plasma at 1 μM. For 0 hour incubation: 25 μL of the plasma spiked with test and reference compounds was transferred into a 96-well sample preparation plate, and then 25 μL blank PB-buffer was added. The samples were quenched by 200 μL of IS solution to prepare [Initial]0h samples. For 5 hours incubation: 100 μL of the plasma spiking with test and reference compounds was loaded on donor side, and 100 μL of blank PB-buffer were loaded on receiver side of the equilibrium dialysis device. Samples were incubated in an air-bath shaker (60 rpm) for 5 hours at 37° C. After 5 hours incubation, 25 μL of samples (from both the donor sides and receiver sides of the dialysis apparatus) was aspirated and added into new sample preparation plates, separately. 25 μL of blank PB-buffer was added to donor side samples and 25 μL of blank plasma was added to receiver side samples to balance the matrix. The samples were quenched with 200 μL of IS solution. The assay plate was shaken at the vibrator (Hangzhou Allsheng, MX100-4A) for 10 min (600 rpm) and then centrifuged at 5,594×g for 15 min (Thermo Multifuge×3R). An aliquot of the 50 μL supernatant was taken from each well and diluted by 50 μL distilled water, then analyzed by UPLC-MS/MS.

[4] = Plasma protein binding, equilibrium dialysis, human plasma; type: in vitro ADME; settings: 5 hours at 37° C., read-out: PPB % bound Human (converted)
Protocol: as §2

[5] = Caco-2 permeability/efflux; type: in vitro ADME; settings: human, Caco-2, pH 7.4; B-A / A-B
Protocol: (§3) Caco-2 cells were obtained from American Tissue Culture Collection (Rockville, MD). The cells were maintained in Modified Eagle's medium (MEM), containing 10% heat-inactivated fetal bovine serum (FBS), and 1% non-essential amino acids, in CO2 at 37° C. Cells were seeded on polycarbonate filter inserts (Millipore, CAT #PSHT 010 R5). The cells were cultured for 21-28 days prior to the permeability experiments. The Lucifer Yellow permeability was checked before and after the assay. Compounds were dissolved at 10 mM in 100% dimethyl sulfoxide (DMSO) and diluted for studies in Hanks Balanced Salt Solution (HBSS, Invitrogen, Cat #14025-092) with 25 mM HEPES, pH 7.4. Compounds were tested at 10 µM in both the apical-to-basolateral (A-B) and basolateral-to-apical (B-A) directions, incubations were conducted at 37° C. for 90 min. At the end of incubation, samples were diluted by assay buffer, and analyzed by LC-MS/MS. The concentrations of the compounds were quantified by standard curve. The first comparator example (Comp. Ex. 1) is the chloro substituted thienodihydropyridine

Caco-2 cells = experiment: Caco-2 permeability/efflux; type: in vitro ADME; settings: 10 uM, 37° C., 90 min, pH 7.4
Protocol: as §3

SAE1 [6] = target: SAE1 (Homo sapiens (Human), UniProt Q9UBE0+Q9UBT2); experiment: SAE High Throughput Biochemical Assay (HTRF), 15 min preincubation; settings: read-out: 15 min preincubation HTRF IC50 (μM) Ave, SAE1 12.5 nM, ATP 100 μM
Sequence of SAE1 (Homo sapiens (Human), UniProt Q9UBE0+Q9UBT2) (Q9UBE0 whole entry): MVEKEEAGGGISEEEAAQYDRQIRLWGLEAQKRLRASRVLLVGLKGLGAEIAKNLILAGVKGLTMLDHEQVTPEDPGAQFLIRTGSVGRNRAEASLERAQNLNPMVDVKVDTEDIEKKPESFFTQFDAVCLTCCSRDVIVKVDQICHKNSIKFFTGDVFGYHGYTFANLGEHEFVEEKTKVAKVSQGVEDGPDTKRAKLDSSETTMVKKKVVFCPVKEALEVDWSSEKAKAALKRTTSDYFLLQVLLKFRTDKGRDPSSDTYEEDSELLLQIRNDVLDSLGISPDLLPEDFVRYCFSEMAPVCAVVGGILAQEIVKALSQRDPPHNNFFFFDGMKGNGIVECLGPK
Sequence of SAE1 (Homo sapiens (Human), UniProt Q9UBE0+Q9UBT2) (Q9UBT2 whole entry): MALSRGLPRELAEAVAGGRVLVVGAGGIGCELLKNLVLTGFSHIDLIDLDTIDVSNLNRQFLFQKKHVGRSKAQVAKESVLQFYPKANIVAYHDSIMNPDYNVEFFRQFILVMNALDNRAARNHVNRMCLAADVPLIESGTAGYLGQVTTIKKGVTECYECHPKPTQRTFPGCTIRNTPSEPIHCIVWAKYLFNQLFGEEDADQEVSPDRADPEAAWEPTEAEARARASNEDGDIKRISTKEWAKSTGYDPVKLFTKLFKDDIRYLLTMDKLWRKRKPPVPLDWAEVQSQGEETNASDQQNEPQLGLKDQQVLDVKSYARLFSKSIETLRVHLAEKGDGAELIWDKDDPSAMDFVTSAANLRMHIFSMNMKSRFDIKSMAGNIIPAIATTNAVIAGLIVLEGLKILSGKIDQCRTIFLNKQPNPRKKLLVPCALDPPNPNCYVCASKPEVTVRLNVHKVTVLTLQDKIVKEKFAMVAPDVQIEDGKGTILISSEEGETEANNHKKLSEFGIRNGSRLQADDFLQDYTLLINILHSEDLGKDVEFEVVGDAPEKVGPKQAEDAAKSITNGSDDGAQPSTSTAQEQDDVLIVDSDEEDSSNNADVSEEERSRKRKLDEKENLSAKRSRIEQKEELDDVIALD
Procedure, shortened: as §1

Solubility Evaluation = type: physicochemical; settings: kinetic from dmso stock, 1 hour at RT
Protocol: The compounds of interest were evaluated for their solubility in various biological solutions. Specifically, aliquots (8 μL) of reference and test compound stock solutions (10 mM) were added into 792 μL of buffer (PBS, pH7.4, FaSSIF, pH 6.5, or FaSSGF, pH 1.6) respectively (Final DMSO conc.: 1%). Sample tubes were shaken for 1 hour (1000 rpm) at RT. The experiment was calibrated using 300 μM spiked solution (SS) in MeOH/CAN (4:1) by adding 6 μL of 10 mM compound stock solution in 194 μL MeOH/ACN(4:1) ranging from 60 μM to 0.02 μM. The samples were centrifuged (10 min-12000 rpm) to precipitate un-dissolved particles. The supernatants were transferred to a new tube or plate. Supernatants were diluted 10 times and 100 times with 100 mM buffer then analyzed by LC-MS/MS. SGF=simulated gastric fluid, SIF=simulated intestinal fluid, PBS=phosphate buffered saline pH 7.4 Values are noted in μM.

[7] = Plasma protein binding, equilibrium dialysis, dog plasma; type: in vitro ADME; settings: 5 hours at 37° C., read-out: PPB % bound Dog (converted)
Protocol: as §2

[8] = Plasma protein binding, equilibrium dialysis, rat plasma; type: in vitro ADME; settings: 5 hours at 37° C., read-out: PPB % bound Rat (converted)
Protocol: as §2

[9] = PBS (phosphate buffered saline), aqueous buffer, phosphate buffered saline pH 7.4, 1% DMSO, read-out: Solubilities PBS
[10] = simulated intestinal fluid (FaSSIF, pH 6.5), 1% DMSO, read-out: Solubilities SIF

Sequence of SAE1 (Homo sapiens (Human), UniProt Q9UBT2) (Q9UBE0 whole entry): as the sequence (Q9UBE0 whole entry) above
Sequence of SAE1 (Homo sapiens (Human), UniProt Q9UBT2) (Q9UBT2 whole entry): as the sequence (Q9UBT2 whole entry) above

Structure (SMILES)	IC50 ([2]; Homo sapiens, HCT-116, 4 h)	fraction unbound at 5 h, 1 μM [3]	fraction unbound at 5 h, 1 μM [4]	efflux ratio at 90 min, 10 μM [5]	Caco-2 apparent permeability (Papp) (Caco-2 cells; apical-to-basolateral)	Caco-2 apparent permeability (Papp) (Caco-2 cells; basolateral-to-apical)	solubility at 1 h (Solubility Evaluation; [9])	solubility at 1 h (Solubility Evaluation; [10])	fraction unbound at 5 h, 1 μM [7]	IC50 [2]	fraction unbound at 5 h, 1 μM [8]	IC50 (SAE1 [1])	IC50 (SAE1 [6])
CCn1cc(-c2ccccc2[C@@H]2CN(C(=O)/C=C/CNC)Cc3sc(C#N)cc32)c(C(F)(F)F)n1 [Example 12, (S, E)-4-(2-(1-Ethyl-3-(trifluoromethyl)-1 H-pyrazol-4-yl)phenyl)-6-(4-(methylamino)but-2-enoyl)-4,5,6,7-tetrahydrothieno[2,3-c]pyridine-2-carbonitrile]	0.353 µM	0.035	0.049	5	5 10^-6 cm/s	58 10^-6 cm/s	–	–	–	–	–	3330 nM	–
CCn1cc(-c2c(F)cccc2[C@@H]2CN(C(=O)/C=C/[C@H](C)NC)Cc3sc(C#N)cc32)c(C(F)(F)F)n1 [Example 89, (S)-4-(2-(1-Ethyl-3-(trifluoromethyl)-1 H pyrazol-4-yl)-3-fluorophenyl)-6-((S, E)-4-(methylamino)pent-2-enoyl)-4,5,6,7-tetrahydrothieno[2,3-c]pyridine-2-carbonitrile]	0.145 µM	0.024	0.029	–	8 10^-6 cm/s	11 10^-6 cm/s	78 µM (≈ 41.5 µg/mL)	90 µM (≈ 47.8 µg/mL)	–	–	–	–	1.13 µM
CCn1cc(-c2c(F)cccc2[C@@H]2CN(C(=O)/C=C/CNC)Cc3sc(C#N)c(C)c32)c(C(F)(F)F)n1 [Example 217, (S, E)-4-(2-(1-ethyl-3-(trifluoromethyl)-1 H-pyrazol-4-yl)-3-fluorophenyl)-3-methyl-6-(4-(methylamino)but-2-enoyl)-4,5,6,7-tetrahydrothieno[2,3-c]pyridine-2-carbonitrile]	0.101 µM	0.026	0.028	2	6 10^-6 cm/s	14 10^-6 cm/s	–	–	0.013	0.18 µM	0.051	150 nM	0.13 µM

Further lines, with some results ahead:

IC50 ([2]; Homo sapiens, HCT-116, 4 h)	fraction unbound at 5 h, 1 μM [3]	fraction unbound at 5 h, 1 μM [4]	efflux ratio at 90 min, 10 μM [5]	Caco-2 apparent permeability (Papp) (Caco-2 cells; apical-to-basolateral)	Caco-2 apparent permeability (Papp) (Caco-2 cells; basolateral-to-apical)	solubility at 1 h (Solubility Evaluation; [9])	solubility at 1 h (Solubility Evaluation; [10])	fraction unbound at 5 h, 1 μM [7]	IC50 [2]	fraction unbound at 5 h, 1 μM [8]	Structure (SMILES)	IC50 (SAE1 [1])	IC50 (SAE1 [6])
0.114 µM	0.014	0.032	–	4 10^-6 cm/s	21 10^-6 cm/s	57 µM (≈ 31 µg/mL)	70 µM (≈ 38.1 µg/mL)	–	–	–	CCn1cc(-c2c(F)cccc2[C@@H]2CN(C(=O)/C=C/[C@@H]3CCCN3)Cc3sc(C#N)cc32)c(C(F)(F)F)n1 [Example 118, (S)-4-(2-(1-Ethyl-3-(trifluoromethyl)-1H-pyrazol-4-yl)-3-fluorophenyl)-6-((E)-3-((S)pyrrolidin-2-yl)acryloyl)-4,5,6,7-tetrahydrothieno[2,3-c]pyridine-2-carbonitrile]	–	0.29 µM
0.0856 µM	0.023	0.04	1	15 10^-6 cm/s	20 10^-6 cm/s	–	–	0.02	–	–	CCn1cc(-c2c(F)cccc2[C@@H]2CN(C(=O)/C=C/CN(C)C)Cc3sc(C#N)cc32)c(C(F)(F)F)n1 [Example 215, (S,E)-6-(4-(dimethylamino)but-2-enoyl)-4-(2-(1-ethyl-3-(trifluoromethyl)-1 H-pyrazol-4-yl)-3-fluorophenyl)-4,5,6,7-tetrahydrothieno[2,3-c]pyridine-2-carbonitrile]	–	1.35 µM
